According to patent publication US20240158393A1, “PYRIDONE COMPOUNDS AND METHODS OF USE” (Exelixis, Inc., priority 2021, published 2024):
pIC50: −log10 of the molar value.

Experiments:
Human Mer = molecular target: T1, Human Mer (Homo sapiens, UniProt Q12866); experiment: Human Mer kinase assay (33P radiometric / HTRF KinEase); format: biochemical; conditions: protocols of Examples C-1 and/or C-2
T1 construct: Human Mer (residues R557-E882 with H628Q and R794A, 0.7 nM); purchased Eurofins Pharma Discovery Services UK Limited (KinaseProfiler service)
T1 sequence (Q12866 557-882 limits assumed): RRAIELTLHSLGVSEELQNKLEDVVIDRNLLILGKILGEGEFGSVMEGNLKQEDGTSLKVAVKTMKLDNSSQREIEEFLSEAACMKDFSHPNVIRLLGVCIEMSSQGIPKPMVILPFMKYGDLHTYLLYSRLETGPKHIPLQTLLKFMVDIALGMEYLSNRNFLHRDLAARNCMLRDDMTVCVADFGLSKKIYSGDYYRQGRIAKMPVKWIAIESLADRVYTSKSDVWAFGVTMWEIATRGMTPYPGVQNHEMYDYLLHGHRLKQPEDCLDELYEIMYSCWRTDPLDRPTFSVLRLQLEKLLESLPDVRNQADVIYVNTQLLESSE
In short: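 Two formats yield IC50 values. HTRF KinEase used MER residues 528-999 with ATP at Km (40 μM), 1 μM biotin-peptide, 60 min RT, […], 10 concentrations. 33P filter assay used 0.7 nM Mer R557-E882 (H628Q/R794A), 10 μM ATP, 250 μM peptide, 40 min RT, top 1 μM.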

Human KDR = molecular target: T2, Human KDR (Homo sapiens, UniProt P35968); experiment: Human KDR kinase assay (33P radiometric / HTRF KinEase); format: biochemical; conditions: protocols of Examples B-1 and/or B-2
T2 construct: Human KDR (residues K790-V1356, 55 nM); purchased Eurofins Pharma Discovery Services UK Limited (KinaseProfiler, B-1) and/or CarnaBio (B-2)
In short: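 Radiometric: KDR K790-V1356 (55 nM), MOPS pH 7.0, myelin basic protein, 10 μM [γ-33P]ATP, 40 min at room temperature, filter-bound 33P counted; nine half-log doses, top 1 μM. HTRF: KDR 790-1356, 1 μM biotinylated peptide, ATP at Km (4.0 μM), 40 min, 10 doses. IC50 from logistic fits.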

T2 sequence (P35968 790-1356): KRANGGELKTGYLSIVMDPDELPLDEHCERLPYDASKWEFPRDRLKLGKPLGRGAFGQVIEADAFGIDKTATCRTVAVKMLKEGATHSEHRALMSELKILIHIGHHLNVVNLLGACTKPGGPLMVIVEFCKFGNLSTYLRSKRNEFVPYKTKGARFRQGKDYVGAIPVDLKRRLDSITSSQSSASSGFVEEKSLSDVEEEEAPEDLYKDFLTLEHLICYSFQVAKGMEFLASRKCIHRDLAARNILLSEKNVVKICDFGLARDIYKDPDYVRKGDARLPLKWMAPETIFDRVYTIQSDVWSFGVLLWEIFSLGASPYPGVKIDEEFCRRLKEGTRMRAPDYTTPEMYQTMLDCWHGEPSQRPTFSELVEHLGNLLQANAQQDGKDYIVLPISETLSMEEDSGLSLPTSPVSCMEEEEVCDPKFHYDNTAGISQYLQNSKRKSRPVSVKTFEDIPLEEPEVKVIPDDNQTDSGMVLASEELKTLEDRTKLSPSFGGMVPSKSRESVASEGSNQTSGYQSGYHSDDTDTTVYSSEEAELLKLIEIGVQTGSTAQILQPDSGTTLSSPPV

Structure (SMILES)	pIC50 (Human Mer)	pIC50 (Human KDR)
COCCOc1cc2nccc(Oc3ccc(NC(=O)c4cnc(C)c(/C=C/C(C)(C)C)c4O)cc3F)c2nc1OC [Compound 40, 5-[(E)-3,3-Dimethylbut-1-enyl]-N-[3-fluoro-4-[[6-methoxy-7-(2-methoxyethoxy)-1,5-naphthyridin-4-yl]oxy]phenyl]-4-hydroxy-6-methylpyridine-3-carboxamide]	≥ 7.00	≥ 7.00
COc1cc2nccc(Oc3cc(F)c(NC(=O)c4c(C)n(C)c(C)c(C5CC5)c4=O)cc3F)c2nc1OC [Compound 47, 5-Cyclopropyl-N-[4-[(6,7-dimethoxy-1,5-naphthyridin-4-yl)oxy]-2,5-difluorophenyl]-1,2,6-trimethyl-4-oxopyridine-3-carboxamide]	≥ 7.00	< 6.52
COc1cc2nccc(Oc3ccc(NC(=O)c4c(C)n(C)c(C)c(C5CC5)c4=O)cc3)c2nc1OC [Compound 48, 5-Cyclopropyl-N-[4-[(6,7-dimethoxy-1,5-naphthyridin-4-yl)oxy]phenyl]-1,2,6-trimethyl-4-oxopyridine-3-carboxamide]	< 6.52	< 6.52
COc1cc2nccc(Oc3ccc(NC(=O)c4c(C)n(C)c(C)c(/C=C/C(C)(C)C)c4=O)cc3F)c2nc1OC [Compound 49, N-[4-[(6,7-Dimethoxy-1,5-naphthyridin-4-yl)oxy]-3-fluorophenyl]-5-[(E)-3,3-dimethylbut-1-enyl]-1,2,6-trimethyl-4-oxopyridine-3-carboxamide]	≥ 7.00	≥ 7.00

Second part, the molecule after the results:

pIC50 (Human Mer)	pIC50 (Human KDR)	Structure (SMILES)
≥ 7.00	≥ 7.00	COCCOc1cc2nccc(Oc3ccc(NC(=O)c4c(C)nc(C)c(C5=CCCC5)c4O)cc3F)c2nc1OC [Compound 41, 5-(Cyclopenten-1-yl)-N-[3-fluoro-4-[[6-methoxy-7-(2-methoxyethoxy)-1,5-naphthyridin-4-yl]oxy]phenyl]-4-hydroxy-2,6-dimethylpyridine-3-carboxamide]
≥ 7.00	≥ 7.00	COCCOc1cc2nccc(Oc3ccc(NC(=O)c4c(C)n(C)c(C)c(C5=CCCC5)c4=O)cc3F)c2nc1OC [Compound 42, 5-(Cyclopenten-1-yl)-N-[3-fluoro-4-[[6-methoxy-7-(2-methoxyethoxy)-1,5-naphthyridin-4-yl]oxy]phenyl]-1,2,6-trimethyl-4-oxopyridine-3-carboxamide]
≥ 7.00	≥ 7.00	COCCOc1cc2nccc(Oc3ccc(NC(=O)c4c(C)nc(C)c(C5=CCOCC5)c4O)cc3F)c2nc1OC [Compound 43, 5-(3,6-Dihydro-2H-pyran-4-yl)-N-[3-fluoro-4-[[6-methoxy-7-(2-methoxyethoxy)-1,5-naphthyridin-4-yl]oxy]phenyl]-4-hydroxy-2,6-dimethylpyridine-3-carboxamide]
≥ 7.00	6.52 to 7.00	COCCOc1cc2nccc(Oc3ccc(NC(=O)c4c(O)c(C5=CCOCC5)c(C)[n+](C)c4C)cc3F)c2nc1OC [Compound 44, 5-(3,6-Dihydro-2H-pyran-4-yl)-N-[3-fluoro-4-[[6-methoxy-7-(2-methoxyethoxy)-1,5-naphthyridin-4-yl]oxy]phenyl]-1,2,6-trimethyl-4-oxopyridine-3-carboxamide]
≥ 7.00	≥ 7.00	COCCOc1cc2nccc(Oc3ccc(NC(=O)c4c(C)n(C)c(C)c(/C=C/C(C)(C)C)c4=O)cc3F)c2nc1OC [Compound 45, 5-[(E)-3,3-Dimethylbut-1-enyl]-N-[3-fluoro-4-[[6-methoxy-7-(2-methoxyethoxy)-1,5-naphthyridin-4-yl]oxy]phenyl]-1,2,6-trimethyl-4-oxopyridine-3-carboxamide]
≥ 7.00	< 6.52	COc1cc2nccc(Oc3ccc(NC(=O)c4c(C)n(C)c(C)c(C5CC5)c4=O)cc3F)c2nc1OC [Compound 46, 5-Cyclopropyl-N-[4-[(6,7-dimethoxy-1,5-naphthyridin-4-yl)oxy]-3-fluorophenyl]-1,2,6-trimethyl-4-oxopyridine-3-carboxamide]
